Measured values taken from paper PMC5218480 (PLoS ONE, 2017).

System: MV-4-11 cells
Assay: Gene expression microarray analysis (Affymetrix PrimeView) and GSEA
Assay type: cell-based, human
Design: RFU PODN (11730768_x_at) / Fold change /veh PODN (11730768_x_at) / RFU LINC00158 (11744669_a_at) / Fold change /veh LINC00158 (11744669_a_at) / RFU DUSP10 (11751237_a_at) / Fold change /veh DUSP10 (11751237_a_at) / RFU ID3 (11757404_x_at) / Fold change /veh ID3 (11757404_x_at) / RFU PLEKHG5 (11737974_s_at) / Fold change /veh PLEKHG5 (11737974_s_at) / RFU LRRC4B (11730491_at) / Fold change /veh LRRC4B (11730491_at) / RFU GIMAP4 (11747438_a_at) / Fold change /veh GIMAP4 (11747438_a_at) / RFU KRT8 (11758183_x_at) / Fold change /veh KRT8 (11758183_x_at) / RFU CNN1 (11734310_a_at) / Fold change /veh CNN1 (11734310_a_at) / RFU VPS37D (11726825_at) / Fold change /veh VPS37D (11726825_at) / RFU C10orf10 (11716522_x_at) / Fold change /veh C10orf10 (11716522_x_at) / RFU KIR2DL2 /// KIR2DL4 /// KIR2DL5A /// KIR2DL5B /// KIR2DS1 /// KIR2DS2 /// KIR2DS3 /// KIR2DS4 /// KIR3DL3 /// KIR3DL3 /// KIR3DS1 (11738374_at) / Fold change /veh KIR2DL2 /// KIR2DL4 /// KIR2DL5A /// KIR2DL5B /// KIR2DS1 /// KIR2DS2 /// KIR2DS3 /// KIR2DS4 /// KIR3DL3 /// KIR3DL3 /// KIR3DS1 (11738374_at) / RFU C1QL1 (11718748_at) / Fold change /veh C1QL1 (11718748_at) / RFU TMPRSS4 (11747572_a_at) / Fold change /veh TMPRSS4 (11747572_a_at) / RFU HAMP (11756126_x_at) / Fold change /veh HAMP (11756126_x_at) / RFU RNFT2 (11725882_a_at) / Fold change /veh RNFT2 (11725882_a_at) / RFU NR4A2 (11747474_a_at) / Fold change /veh NR4A2 (11747474_a_at) / RFU ABCC12 (11746883_a_at) / Fold change /veh ABCC12 (11746883_a_at) / RFU TMEM136 (11760407_x_at) / Fold change /veh TMEM136 (11760407_x_at) / RFU CLDN22 /// WWC2 (11732394_at) / Fold change /veh CLDN22 /// WWC2 (11732394_at) / RFU HLA-DPB1 (11760878_x_at) / Fold change /veh HLA-DPB1 (11760878_x_at) / RFU SPINT1 (11716480_a_at) / Fold change /veh SPINT1 (11716480_a_at) / RFU GAP43 (11754022_s_at) / Fold change /veh GAP43 (11754022_s_at) / RFU A4GNT (11735810_at) / Fold change /veh A4GNT (11735810_at) / RFU PRB3 (11715151_x_at) / Fold change /veh PRB3 (11715151_x_at) / RFU TUBB4B (11761932_at) / Fold change /veh TUBB4B (11761932_at) / RFU CAPN14 (11732068_a_at) / Fold change /veh CAPN14 (11732068_a_at) / RFU TMCC2 (11721928_a_at) / Fold change /veh TMCC2 (11721928_a_at) / RFU IRGQ (11745062_a_at) / Fold change /veh IRGQ (11745062_a_at) / RFU FAM174B (11720279_a_at) / Fold change /veh FAM174B (11720279_a_at) / RFU TMPRSS4 (11748680_a_at) / Fold change /veh TMPRSS4 (11748680_a_at) / RFU FAM212B (11763350_a_at) / Fold change /veh FAM212B (11763350_a_at) / RFU PLEKHG5 (11743358_a_at) / Fold change /veh PLEKHG5 (11743358_a_at) / RFU ZSCAN30 (11745921_a_at) / Fold change /veh ZSCAN30 (11745921_a_at) / RFU CMKLR1 (11741424_a_at) / Fold change /veh CMKLR1 (11741424_a_at) / RFU LOC101060620 /// MAPK8IP1 (11723275_at) / Fold change /veh LOC101060620 /// MAPK8IP1 (11723275_at) / RFU SPTSSB (11747773_x_at) / Fold change /veh SPTSSB (11747773_x_at) / RFU PRSS12 (11739890_at) / Fold change /veh PRSS12 (11739890_at) / RFU BIN1 (11741810_x_at) / Fold change /veh BIN1 (11741810_x_at) / RFU WNT11 (11732464_a_at) / Fold change /veh WNT11 (11732464_a_at) / RFU C10orf10 (11716521_a_at) / Fold change /veh C10orf10 (11716521_a_at) / RFU C5orf56 (11738089_at) / Fold change /veh C5orf56 (11738089_at) / RFU CYB561 (11721691_x_at) / Fold change /veh CYB561 (11721691_x_at) / RFU ANKRD19P (11752326_a_at) / Fold change /veh ANKRD19P (11752326_a_at) / RFU OR2T12 /// OR2T33 /// OR2T8 (11738714_s_at) / Fold change /veh OR2T12 /// OR2T33 /// OR2T8 (11738714_s_at) / RFU VCAN (11748164_a_at) / Fold change /veh VCAN (11748164_a_at) / RFU JSRP1 (11732532_at) / Fold change /veh JSRP1 (11732532_at) / RFU KRTAP10-11 (11738290_x_at) / Fold change /veh KRTAP10-11 (11738290_x_at) / RFU MYO3A (11730013_a_at) / Fold change /veh MYO3A (11730013_a_at) / RFU EBF3 (11725865_a_at) / Fold change /veh EBF3 (11725865_a_at) / RFU CAMK2N1 (11719241_x_at) / Fold change /veh CAMK2N1 (11719241_x_at) / RFU C5orf56 (11738088_a_at) / Fold change /veh C5orf56 (11738088_a_at) / RFU OLFML3 (11715873_a_at) / Fold change /veh OLFML3 (11715873_a_at) / RFU LOC100653217 /// NTM (11731650_a_at) / Fold change /veh LOC100653217 /// NTM (11731650_a_at) / RFU MAPK11 (11762145_a_at) / Fold change /veh MAPK11 (11762145_a_at) / RFU FIZ1 (11724087_x_at) / Fold change /veh FIZ1 (11724087_x_at) / RFU OASL (11726364_x_at) / Fold change /veh OASL (11726364_x_at) / RFU SOX15 (11748057_x_at) / Fold change /veh SOX15 (11748057_x_at) / RFU CD79A (11719716_a_at) / Fold change /veh CD79A (11719716_a_at) / RFU HIST1H1D (11736915_at) / Fold change /veh HIST1H1D (11736915_at) / RFU CASKIN2 (11723855_a_at) / Fold change /veh CASKIN2 (11723855_a_at) / RFU LOC730098 (11760151_x_at) / Fold change /veh LOC730098 (11760151_x_at) / RFU OR4N2 (11742367_at) / Fold change /veh OR4N2 (11742367_at) / RFU PRRT2 (11749266_a_at) / Fold change /veh PRRT2 (11749266_a_at) / RFU SNX32 (11753110_a_at) / Fold change /veh SNX32 (11753110_a_at) / RFU CDHR5 (11726645_a_at) / Fold change /veh CDHR5 (11726645_a_at) / RFU RCAN1 (11760418_a_at) / Fold change /veh RCAN1 (11760418_a_at) / RFU FAM167A (11723789_a_at) / Fold change /veh FAM167A (11723789_a_at) / RFU FAM26E (11764081_at) / Fold change /veh FAM26E (11764081_at) / RFU ISYNA1 (11749810_s_at) / Fold change /veh ISYNA1 (11749810_s_at) / RFU ACY1 (11761880_at) / Fold change /veh ACY1 (11761880_at) / RFU 11764098_at / Fold change /veh 11764098_at / RFU SAMD14 (11745864_x_at) / Fold change /veh SAMD14 (11745864_x_at) / RFU NPB (11741838_a_at) / Fold change /veh NPB (11741838_a_at) / RFU TMPRSS6 (11731388_a_at) / Fold change /veh TMPRSS6 (11731388_a_at) / RFU KRTAP10-2 (11738614_at) / Fold change /veh KRTAP10-2 (11738614_at) / RFU ARHGAP8 /// PRR5-ARHGAP8 (11727945_x_at) / Fold change /veh ARHGAP8 /// PRR5-ARHGAP8 (11727945_x_at) / RFU KRTAP5-7 /// NADSYN1 (11734609_at) / Fold change /veh KRTAP5-7 /// NADSYN1 (11734609_at) / RFU RASL12 (11751679_a_at) / Fold change /veh RASL12 (11751679_a_at) / RFU CDKN2B (11736163_a_at) / Fold change /veh CDKN2B (11736163_a_at) / RFU PRF1 (11729649_at) / Fold change /veh PRF1 (11729649_at) / RFU, ZNF638 /// ZNF638-IT1 / Fold change vs veh, ZNF638 /// ZNF638-IT1 / RFU, PANK3 / Fold change vs veh, PANK3 / RFU, SH3YL1 / Fold change vs veh, SH3YL1 / RFU, ZEB2 / Fold change vs veh, ZEB2 / RFU, NRIP1 / Fold change vs veh, NRIP1 / RFU, PTTG1IP / Fold change vs veh, PTTG1IP / RFU, CAPN2 / Fold change vs veh, CAPN2 / RFU, MED14 / Fold change vs veh, MED14 / RFU, SNORA58 / Fold change vs veh, SNORA58 / RFU, C1orf63 / Fold change vs veh, C1orf63 / RFU, LRRFIP1 / Fold change vs veh, LRRFIP1 / RFU, NDUFAF7 / Fold change vs veh, NDUFAF7 / RFU, SLC12A2 / Fold change vs veh, SLC12A2 / RFU, IBTK / Fold change vs veh, IBTK / RFU, ESF1 / Fold change vs veh, ESF1 / Fold change vs veh, TMEM50B / RFU, TAOK1 / Fold change vs veh, TAOK1 / RFU, ACBD3 / Fold change vs veh, ACBD3 / RFU, TMA16 / Fold change vs veh, TMA16 / RFU, RWDD3 / Fold change vs veh, RWDD3 / RFU, BCAT1 / Fold change vs veh, BCAT1 / RFU, EDEM3 / Fold change vs veh, EDEM3 / RFU, TMEM33 / Fold change vs veh, TMEM33 / RFU, WDR75 / Fold change vs veh, WDR75 / RFU, AHCTF1 / Fold change vs veh, AHCTF1 / RFU, TFRC / Fold change vs veh, TFRC / RFU, ZDHHC17 / Fold change vs veh, ZDHHC17 / RFU, NOM1 / Fold change vs veh, NOM1 / RFU, ARL8B / Fold change vs veh, ARL8B / RFU, ZBTB11 / Fold change vs veh, ZBTB11 / RFU, TAMM41 / Fold change vs veh, TAMM41 / RFU, KIAA1704 /// LOC100996395 / Fold change vs veh, KIAA1704 /// LOC100996395 / RFU, ING1 / Fold change vs veh, ING1 / RFU, TRMT61B / Fold change vs veh, TRMT61B / RFU, FUBP3 / Fold change vs veh, FUBP3 / RFU, TP53 / Fold change vs veh, TP53 / RFU, TNKS2 / Fold change vs veh, TNKS2 / RFU, ZFP14 / Fold change vs veh, ZFP14 / RFU, ACTR2 / Fold change vs veh, ACTR2 / RFU, PPP3R1 / Fold change vs veh, PPP3R1 / RFU, PIK3R1 / Fold change vs veh, PIK3R1 / RFU, HNRNPA1 / Fold change vs veh, HNRNPA1 / RFU, RNF170 / Fold change vs veh, RNF170 / RFU, ZNF28 / Fold change vs veh, ZNF28 / RFU, RNGTT / Fold change vs veh, RNGTT / RFU, OGT / Fold change vs veh, OGT / RFU, BRD1 / Fold change vs veh, BRD1 / RFU, MARS / Fold change vs veh, MARS / RFU, ZNF655 / Fold change vs veh, ZNF655 / RFU, FAHD1 / Fold change vs veh, FAHD1 / RFU, BDP1 / Fold change vs veh, BDP1 / RFU, LRRCC1 / Fold change vs veh, LRRCC1 / RFU, ARID1A / Fold change vs veh, ARID1A / RFU, ZNF146 / Fold change vs veh, ZNF146 / RFU, ZNF330 / Fold change vs veh, ZNF330 / RFU, GPN3 / Fold change vs veh, GPN3 / RFU, C9orf123 / Fold change vs veh, C9orf123 / RFU, N4BP2L2 / Fold change vs veh, N4BP2L2 / RFU, ARFIP1 / Fold change vs veh, ARFIP1 / RFU, FAM179B / Fold change vs veh, FAM179B / RFU, BCL10 / Fold change vs veh, BCL10 / RFU, UHRF1BP1L / Fold change vs veh, UHRF1BP1L / RFU, BET1 / Fold change vs veh, BET1 / RFU, CNOT2 / Fold change vs veh, CNOT2 / RFU, ZNF268 / Fold change vs veh, ZNF268 / Fold change vs veh, ZNF507 / RFU, DGCR2 / Fold change vs veh, DGCR2 / RFU, WDSUB1 / Fold change vs veh, WDSUB1 / Fold change vs veh, HSP90B1 /// MIR3652 / RFU, ADSS / Fold change vs veh, ADSS / RFU, GK / Fold change vs veh, GK / RFU, ZNF148 / Fold change vs veh, ZNF148 / RFU, TAF9 / Fold change vs veh, TAF9 / RFU, SLC1A5 / Fold change vs veh, SLC1A5 / RFU, SLMO2 / Fold change vs veh, SLMO2 / RFU, ABCC4 / Fold change vs veh, ABCC4 / RFU, LOC101060439 /// RAP1B / Fold change vs veh, LOC101060439 /// RAP1B / RFU, RFX7 / Fold change vs veh, RFX7 / RFU, GTPBP10 / Fold change vs veh, GTPBP10 / RFU, CNEP1R1 / Fold change vs veh, CNEP1R1 / RFU, BIVM-ERCC5 /// ERCC5 / Fold change vs veh, BIVM-ERCC5 /// ERCC5 / RFU, ILF3 / Fold change vs veh, ILF3 / RFU 11762660_at / Fold change /veh 11762660_at / RFU VCAN (11757783_s_at) / Fold change /veh VCAN (11757783_s_at) / RFU DDX43 (11728927_at) / Fold change /veh DDX43 (11728927_at) / RFU KRT8 (11758188_x_at) / Fold change /veh KRT8 (11758188_x_at) / RFU NKD1 (11759106_at) / Fold change /veh NKD1 (11759106_at) / RFU SRD5A1 (11742802_a_at) / Fold change /veh SRD5A1 (11742802_a_at) / RFU TPSAB1 /// TPSB2 (11721975_s_at) / Fold change /veh TPSAB1 /// TPSB2 (11721975_s_at) / RFU GSTM3 (11746129_a_at) / Fold change /veh GSTM3 (11746129_a_at) / RFU IL23R (11737362_x_at) / Fold change /veh IL23R (11737362_x_at) / RFU TMEM51 (11727254_a_at) / Fold change /veh TMEM51 (11727254_a_at) / RFU PIWIL2 (11732686_x_at) / Fold change /veh PIWIL2 (11732686_x_at) / RFU ORM1 (11744905_x_at) / Fold change /veh ORM1 (11744905_x_at) / RFU CCDC152 (11743942_at) / Fold change /veh CCDC152 (11743942_at) / RFU ECM1 (11717891_a_at) / Fold change /veh ECM1 (11717891_a_at) / RFU IL23R (11748794_a_at) / Fold change /veh IL23R (11748794_a_at) / RFU TNFAIP8L3 (11732012_x_at) / Fold change /veh TNFAIP8L3 (11732012_x_at) / RFU MBOAT4 (11741988_at) / Fold change /veh MBOAT4 (11741988_at) / RFU 11764193_at / Fold change /veh 11764193_at / RFU TMEM53 (11763286_at) / Fold change /veh TMEM53 (11763286_at) / RFU MAGEB2 (11727129_at) / Fold change /veh MAGEB2 (11727129_at) / RFU TMEM200A (11744735_a_at) / Fold change /veh TMEM200A (11744735_a_at) / RFU CCDC152 (11751479_a_at) / Fold change /veh CCDC152 (11751479_a_at) / RFU FAM211A (11726209_a_at) / Fold change /veh FAM211A (11726209_a_at) / RFU RGS16 (11746705_a_at) / Fold change /veh RGS16 (11746705_a_at) / RFU VCAN (11755009_s_at) / Fold change /veh VCAN (11755009_s_at) / RFU RHOB (11743442_s_at) / Fold change /veh RHOB (11743442_s_at) / RFU RGS16 (11720943_a_at) / Fold change /veh RGS16 (11720943_a_at) / RFU RGS16 (11720944_at) / Fold change /veh RGS16 (11720944_at) / RFU, VPS4B / Fold change vs veh, VPS4B / RFU, CREB1 / Fold change vs veh, CREB1 / RFU, DNAJC13 / Fold change vs veh, DNAJC13 / RFU, GNAQ / Fold change vs veh, GNAQ / RFU, CDK5R1 / Fold change vs veh, CDK5R1 / RFU, ZRANB3 / Fold change vs veh, ZRANB3 / RFU, CUL4A / Fold change vs veh, CUL4A / RFU, CCNY / Fold change vs veh, CCNY / RFU, UFL1 / Fold change vs veh, UFL1 / RFU, COG3 / Fold change vs veh, COG3 / RFU, DIAPH2 / Fold change vs veh, DIAPH2 / RFU, SKA2 / Fold change vs veh, SKA2 / RFU, AFF3 / Fold change vs veh, AFF3 / RFU, LMF1 / Fold change vs veh, LMF1 / RFU, IPO11 / Fold change vs veh, IPO11 / RFU, DFFB / Fold change vs veh, DFFB / RFU, FOXP1 / Fold change vs veh, FOXP1 / RFU, CARD8 / Fold change vs veh, CARD8 / RFU, STRN3 / Fold change vs veh, STRN3 / RFU, ADK / Fold change vs veh, ADK / RFU, RASSF2 / Fold change vs veh, RASSF2 / RFU, WIPF1 / Fold change vs veh, WIPF1 / RFU, LARP1B / Fold change vs veh, LARP1B / RFU, RASA1 / Fold change vs veh, RASA1 / RFU, RB1 / Fold change vs veh, RB1 / RFU, PPFIA1 / Fold change vs veh, PPFIA1 / RFU, MAT2A / Fold change vs veh, MAT2A / RFU, CCT5 / Fold change vs veh, CCT5 / RFU, WDR92 / Fold change vs veh, WDR92 / RFU, CUX1 / Fold change vs veh, CUX1 / RFU, TTC7A / Fold change vs veh, TTC7A / RFU, TMEM135 / Fold change vs veh, TMEM135 / RFU, DEPTOR / Fold change vs veh, DEPTOR / RFU, CPM / Fold change vs veh, CPM / RFU, DNAJB6 / Fold change vs veh, DNAJB6 / RFU, CACNA2D3 / Fold change vs veh, CACNA2D3 / RFU, DTX4 / Fold change vs veh, DTX4 / RFU, TFCP2 / Fold change vs veh, TFCP2 / RFU, GMCL1 /// GMCL1P1 / Fold change vs veh, GMCL1 /// GMCL1P1 / RFU, AEBP2 / Fold change vs veh, AEBP2 / RFU, SNHG1 /// SNORD22 /// SNORD25 /// SNORD26 /// SNORD27 /// SNORD28 /// SNORD29 /// SNORD31 / Fold change vs veh, SNHG1 /// SNORD22 /// SNORD25 /// SNORD26 /// SNORD27 /// SNORD28 /// SNORD29 /// SNORD31 / Fold change (Aza/veh), C12orf56 (ProbeSet 11735607_a_at) / Fold change (ACY-1035/veh), C12orf56 (ProbeSet 11735607_a_at) / Fold change (Aza/veh), FGFR1OP (ProbeSet 11751329_s_at) / Fold change (ACY-1035/veh), FGFR1OP (ProbeSet 11751329_s_at) / Fold change (Aza/veh), VPS36 (ProbeSet 11739960_a_at) / Fold change (ACY-1035/veh), VPS36 (ProbeSet 11739960_a_at) / RFU SYPL1 (11715823_x_at) / Fold change /veh SYPL1 (11715823_x_at) / RFU IGFBP7 (11715501_s_at) / Fold change /veh IGFBP7 (11715501_s_at) / RFU REEP3 (11722064_at) / Fold change /veh REEP3 (11722064_at) / RFU IGLL1 (11728026_x_at) / Fold change /veh IGLL1 (11728026_x_at): dose or concentration left out as unconfirmed
Conditions: MV-4-11 cells, 48 hours

## Nc1ncn([C@@H]2O[C@H](CO)[C@@H](O)[C@H]2O)c(=O)n1 [azacitidine]
  RFU TPSAB1 /// TPSB2 (11721975_s_at): 24.54 RFU
